Data from ChEMBL document CHEMBL5625232, “Development of selective class I protein arginine methyltransferase inhibitors through fragment-based drug design approach” (Eur J Med Chem, 2023).
pIC50: −log10 of the molar value. The source made the active and inactive calls. The calls are words filed in the database; no cut-off is given here.

Columns and labels:
[1] = target: T1, Histone-arginine methyltransferase CARM1 (Homo sapiens) (UniProt Q86X55); assay: Displacement of 3H-SAM from human PRMT4 at 10 uM in presence of substrate by SPA assay
T1 sequence (whole entry): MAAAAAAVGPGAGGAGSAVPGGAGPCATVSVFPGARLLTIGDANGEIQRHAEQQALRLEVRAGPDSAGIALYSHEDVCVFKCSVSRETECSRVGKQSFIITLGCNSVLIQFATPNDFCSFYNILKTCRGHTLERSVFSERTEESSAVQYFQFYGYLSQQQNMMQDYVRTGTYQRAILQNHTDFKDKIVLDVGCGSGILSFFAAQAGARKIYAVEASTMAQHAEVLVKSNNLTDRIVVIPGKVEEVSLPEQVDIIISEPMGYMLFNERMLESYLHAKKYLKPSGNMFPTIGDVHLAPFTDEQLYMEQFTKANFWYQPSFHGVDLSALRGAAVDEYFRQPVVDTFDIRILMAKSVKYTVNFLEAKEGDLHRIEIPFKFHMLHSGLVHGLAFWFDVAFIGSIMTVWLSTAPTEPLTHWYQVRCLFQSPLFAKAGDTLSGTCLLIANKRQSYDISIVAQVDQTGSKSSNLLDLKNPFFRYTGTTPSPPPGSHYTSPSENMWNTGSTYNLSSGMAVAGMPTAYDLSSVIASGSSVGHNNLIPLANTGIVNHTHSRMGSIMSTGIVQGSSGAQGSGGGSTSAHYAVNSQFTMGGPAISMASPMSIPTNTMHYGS

[2] = target: T2, Protein arginine N-methyltransferase 8 (Homo sapiens, UniProt Q9NR22); assay: Displacement of 3H-SAM from human PRMT8 at 10 uM in presence of substrate by SPA assay
Target sequence in this assay (Q9NR22 2-394 limits assumed): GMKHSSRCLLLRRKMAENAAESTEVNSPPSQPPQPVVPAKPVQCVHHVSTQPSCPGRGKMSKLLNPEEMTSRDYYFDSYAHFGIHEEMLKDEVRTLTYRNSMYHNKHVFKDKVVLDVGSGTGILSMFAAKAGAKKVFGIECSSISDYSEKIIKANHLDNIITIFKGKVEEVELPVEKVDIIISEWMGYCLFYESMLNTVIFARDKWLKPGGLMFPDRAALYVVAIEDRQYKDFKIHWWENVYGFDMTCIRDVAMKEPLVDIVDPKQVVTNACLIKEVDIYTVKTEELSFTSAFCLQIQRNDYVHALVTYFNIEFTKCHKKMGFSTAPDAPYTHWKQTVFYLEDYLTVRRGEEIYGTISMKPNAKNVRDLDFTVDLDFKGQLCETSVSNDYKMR

[3] = target: T3, Protein arginine N-methyltransferase 7 (Homo sapiens) (UniProt Q9NVM4); assay: Displacement of 3H-SAM from human PRMT7 at 10 uM in presence of substrate by SPA assay
T3 sequence (whole entry): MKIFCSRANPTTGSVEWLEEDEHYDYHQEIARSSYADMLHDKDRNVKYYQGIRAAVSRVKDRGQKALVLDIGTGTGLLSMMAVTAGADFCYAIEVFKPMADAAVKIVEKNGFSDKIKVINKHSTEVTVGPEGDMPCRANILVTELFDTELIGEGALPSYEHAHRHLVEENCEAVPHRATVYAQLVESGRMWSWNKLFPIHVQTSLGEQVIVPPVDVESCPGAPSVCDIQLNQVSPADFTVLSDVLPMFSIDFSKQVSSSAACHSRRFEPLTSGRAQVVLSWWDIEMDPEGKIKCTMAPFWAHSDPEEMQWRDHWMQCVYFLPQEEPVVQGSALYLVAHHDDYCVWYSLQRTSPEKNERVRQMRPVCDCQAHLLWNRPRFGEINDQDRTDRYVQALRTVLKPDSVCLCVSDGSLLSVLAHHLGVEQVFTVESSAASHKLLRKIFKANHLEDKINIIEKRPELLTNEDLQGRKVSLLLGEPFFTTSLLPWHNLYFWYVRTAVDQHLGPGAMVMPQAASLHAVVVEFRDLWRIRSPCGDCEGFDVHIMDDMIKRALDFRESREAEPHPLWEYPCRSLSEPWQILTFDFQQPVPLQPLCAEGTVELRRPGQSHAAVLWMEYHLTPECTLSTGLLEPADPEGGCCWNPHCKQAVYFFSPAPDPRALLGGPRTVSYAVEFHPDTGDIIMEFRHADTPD

[4] = target: T2, Protein arginine N-methyltransferase 8; assay: Displacement of 3H-SAM from human PRMT8 in presence of substrate by SPA assay
Target sequence in this assay (Q9NR22 whole entry): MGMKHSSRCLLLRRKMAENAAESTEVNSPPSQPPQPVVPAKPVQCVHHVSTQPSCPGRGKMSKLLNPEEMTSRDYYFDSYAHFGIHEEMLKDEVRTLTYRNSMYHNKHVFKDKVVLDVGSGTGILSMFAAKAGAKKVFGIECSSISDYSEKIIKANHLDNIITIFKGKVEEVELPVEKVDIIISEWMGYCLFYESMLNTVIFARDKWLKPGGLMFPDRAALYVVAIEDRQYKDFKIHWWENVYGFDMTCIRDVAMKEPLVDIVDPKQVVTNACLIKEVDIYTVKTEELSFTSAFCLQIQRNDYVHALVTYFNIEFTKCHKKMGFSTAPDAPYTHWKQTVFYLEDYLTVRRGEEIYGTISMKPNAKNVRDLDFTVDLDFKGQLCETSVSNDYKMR

[5] = target: T4, Protein arginine N-methyltransferase 3 (Homo sapiens, UniProt O60678); assay: Displacement of 3H-SAM from human PRMT3 in presence of substrate by SPA assay
Target sequence in this assay (O60678 whole entry): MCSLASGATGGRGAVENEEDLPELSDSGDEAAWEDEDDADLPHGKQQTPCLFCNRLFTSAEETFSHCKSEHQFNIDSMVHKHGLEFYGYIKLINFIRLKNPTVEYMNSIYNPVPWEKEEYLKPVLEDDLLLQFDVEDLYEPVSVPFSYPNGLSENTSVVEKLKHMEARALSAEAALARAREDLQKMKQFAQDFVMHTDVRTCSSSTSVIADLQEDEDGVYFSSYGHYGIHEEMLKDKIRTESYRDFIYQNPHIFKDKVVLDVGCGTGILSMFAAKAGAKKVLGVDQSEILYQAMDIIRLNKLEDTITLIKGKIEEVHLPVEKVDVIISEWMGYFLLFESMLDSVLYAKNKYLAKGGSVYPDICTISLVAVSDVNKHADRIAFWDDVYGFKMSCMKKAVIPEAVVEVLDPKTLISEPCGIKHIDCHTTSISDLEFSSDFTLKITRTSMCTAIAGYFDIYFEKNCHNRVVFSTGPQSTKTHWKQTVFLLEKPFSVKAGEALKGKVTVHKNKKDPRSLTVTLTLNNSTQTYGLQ

[6] = target: T5, Histone-arginine methyltransferase CARM1 (Homo sapiens, UniProt Q86X55); assay: Displacement of 3H-SAM from human PRMT4 in presence of substrate by SPA assay
T5 sequence (Q86X55 whole entry): T1 sequence (whole entry)

[7] = target: Protein arginine N-methyltransferase 5 (Homo sapiens) (UniProt O14744); assay: Displacement of 3H-SAM from human PRMT5 at 10 uM in presence of substrate by SPA assay
Protein arginine N-methyltransferase 5 (Homo sapiens), sequence (O14744 whole entry): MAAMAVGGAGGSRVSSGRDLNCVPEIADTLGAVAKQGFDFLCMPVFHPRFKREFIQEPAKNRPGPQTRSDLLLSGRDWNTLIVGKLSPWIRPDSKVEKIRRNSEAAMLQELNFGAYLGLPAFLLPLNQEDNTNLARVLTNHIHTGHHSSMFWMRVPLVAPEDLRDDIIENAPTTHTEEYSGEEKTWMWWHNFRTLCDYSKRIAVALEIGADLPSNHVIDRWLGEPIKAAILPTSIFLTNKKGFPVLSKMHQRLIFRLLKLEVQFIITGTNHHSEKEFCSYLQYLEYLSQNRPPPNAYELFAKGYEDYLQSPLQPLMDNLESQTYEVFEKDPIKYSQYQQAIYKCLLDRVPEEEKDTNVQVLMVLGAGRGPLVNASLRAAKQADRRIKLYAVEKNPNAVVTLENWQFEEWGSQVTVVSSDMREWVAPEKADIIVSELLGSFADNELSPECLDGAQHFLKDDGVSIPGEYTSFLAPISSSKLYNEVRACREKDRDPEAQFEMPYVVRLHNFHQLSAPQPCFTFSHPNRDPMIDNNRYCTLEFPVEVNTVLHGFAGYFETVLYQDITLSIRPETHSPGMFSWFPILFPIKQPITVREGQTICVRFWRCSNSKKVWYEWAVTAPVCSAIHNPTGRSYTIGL

[8] = target: T4, Protein arginine N-methyltransferase 3; assay: Displacement of 3H-SAM from human PRMT3 at 10 uM in presence of substrate by SPA assay
Target sequence in this assay (O60678 2-531 limits assumed): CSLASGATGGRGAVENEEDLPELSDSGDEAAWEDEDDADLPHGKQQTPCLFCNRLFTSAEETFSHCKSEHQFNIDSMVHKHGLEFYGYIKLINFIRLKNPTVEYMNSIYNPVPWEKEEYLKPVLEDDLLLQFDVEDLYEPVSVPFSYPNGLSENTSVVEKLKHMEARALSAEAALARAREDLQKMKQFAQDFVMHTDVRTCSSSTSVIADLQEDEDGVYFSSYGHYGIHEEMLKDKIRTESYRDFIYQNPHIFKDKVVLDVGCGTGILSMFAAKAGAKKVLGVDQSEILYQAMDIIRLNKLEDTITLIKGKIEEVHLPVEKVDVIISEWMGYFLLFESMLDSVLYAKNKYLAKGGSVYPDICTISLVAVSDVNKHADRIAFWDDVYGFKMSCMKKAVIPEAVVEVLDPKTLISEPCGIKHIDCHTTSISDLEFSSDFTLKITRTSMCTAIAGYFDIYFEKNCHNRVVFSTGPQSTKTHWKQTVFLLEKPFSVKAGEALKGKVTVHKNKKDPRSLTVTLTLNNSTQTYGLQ

[9] = target: T6, Protein arginine N-methyltransferase 9 (Homo sapiens) (UniProt Q6P2P2); assay: Displacement of 3H-SAM from human PRMT9 at 10 uM in presence of substrate by SPA assay
T6 sequence (whole entry): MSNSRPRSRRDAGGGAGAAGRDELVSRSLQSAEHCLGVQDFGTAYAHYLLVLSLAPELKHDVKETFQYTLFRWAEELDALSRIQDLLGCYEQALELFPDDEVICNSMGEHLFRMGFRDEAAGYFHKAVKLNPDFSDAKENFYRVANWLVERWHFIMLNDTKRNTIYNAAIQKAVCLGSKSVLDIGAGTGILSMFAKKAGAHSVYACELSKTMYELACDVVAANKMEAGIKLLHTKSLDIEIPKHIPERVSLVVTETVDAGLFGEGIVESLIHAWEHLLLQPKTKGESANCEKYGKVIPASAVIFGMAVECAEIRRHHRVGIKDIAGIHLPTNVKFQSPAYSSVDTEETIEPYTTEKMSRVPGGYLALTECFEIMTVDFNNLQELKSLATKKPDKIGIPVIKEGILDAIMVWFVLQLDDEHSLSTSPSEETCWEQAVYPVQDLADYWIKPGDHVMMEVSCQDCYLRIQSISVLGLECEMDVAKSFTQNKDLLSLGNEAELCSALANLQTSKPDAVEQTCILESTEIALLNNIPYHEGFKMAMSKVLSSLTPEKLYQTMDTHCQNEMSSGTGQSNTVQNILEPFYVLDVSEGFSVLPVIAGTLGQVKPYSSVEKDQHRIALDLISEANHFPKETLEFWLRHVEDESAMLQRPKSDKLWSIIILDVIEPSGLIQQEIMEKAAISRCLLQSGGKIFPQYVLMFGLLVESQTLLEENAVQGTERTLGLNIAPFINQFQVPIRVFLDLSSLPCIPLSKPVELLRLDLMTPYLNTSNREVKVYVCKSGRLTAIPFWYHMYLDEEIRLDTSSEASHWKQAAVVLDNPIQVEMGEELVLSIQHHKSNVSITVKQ

[10] = target: T7, Protein arginine N-methyltransferase 6 (Homo sapiens, UniProt Q96LA8); assay: Displacement of 3H-SAM from human PRMT6 in presence of substrate by SPA assay
Target sequence in this assay (Q96LA8 whole entry): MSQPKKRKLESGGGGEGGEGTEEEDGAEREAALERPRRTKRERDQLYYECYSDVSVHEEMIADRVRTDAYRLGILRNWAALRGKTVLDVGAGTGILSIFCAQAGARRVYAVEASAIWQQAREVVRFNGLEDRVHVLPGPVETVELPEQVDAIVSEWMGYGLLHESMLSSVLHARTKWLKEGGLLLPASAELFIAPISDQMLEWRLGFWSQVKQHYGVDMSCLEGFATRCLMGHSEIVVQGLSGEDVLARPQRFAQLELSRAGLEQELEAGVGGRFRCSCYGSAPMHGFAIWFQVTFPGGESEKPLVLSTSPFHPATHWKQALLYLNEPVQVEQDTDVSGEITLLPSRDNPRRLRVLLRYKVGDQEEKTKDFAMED

[11] = target: T7, Protein arginine N-methyltransferase 6; assay: Displacement of 3H-SAM from human PRMT6 at 10 uM in presence of substrate by SPA assay
Target sequence in this assay (Q96LA8 whole entry, looked up): as the sequence (Q96LA8 whole entry) above

| inhibition [1] | inhibition [2] | inhibition [3] | pIC50 [4] | pIC50 [5] | pIC50 [6] | inhibition [7] | inhibition [8] | inhibition [9] | pIC50 [10] | inhibition [11] | Compound |
| --- | --- | --- | --- | --- | --- | --- | --- | --- | --- | --- | --- |
| Active | Active | Active | 3.10 | 2.45 | 4.43 | Active | Active | Active | 3.60 | Active | CNCCN1CC[C@@H](NC(=O)c2ccc3c(Nc4ccc(CN)cc4)ncnc3c2)C1 |
| Active | Active | Active | 3.08 | 2.86 | 4.04 | Active | Active | Active | 3.36 | Active | CNCCN1CC[C@H](NC(=O)c2ccc3c(Nc4ccc(CN)cc4)ncnc3c2)C1 |
| Active | Active | Active | 2.61 | 2.51 | 4.10 | Active | Active | Active | 3.15 | Active | CNCCN1CCC(NC(=O)c2ccc3c(Nc4ccc(CN)cc4)ncnc3c2)C1 (racemic) |
